Laboratory results as given in patent US20140148355A1, “COMPOSITIONS AND METHODS FOR ANALYSIS OF H3K4 METHYLATED CHROMATIN” (UNIVERSITY OF OSLO, priority 2011, published 2014).

System: H3K4 methylated chromatin
Experiment: Chromatin pulldown (ChPD) with western blot detection
Assay type: binding
Settings: antibodies against each of the three H3K4 methylation states; Arabidopsis seedling chromatin
Source text: FIG. 8 Chromatin pulldown (ChPD) using the ASHH2 CW. […] Modified histones were visualised by western blot using antibodies as indicated. Molecular size markers are shown to the right. (B) qPCR with primers for assumed ASHH2 target genes on DNA isolated from seedling chromatin pulled down with GST-CWASHH2. ChPD with GST alone was used as a negative control. Data are shown as percent of input. The Ta3 retrotransposon was used as reference. Standard deviations are shown. (C) ChIP using antibodies against H3K4me1, H3K4me3 and H3K36me3 and primers for the same genes as in (B). Data are shown relative to Ta3. (D) ChPD from wt and ashh2 mutant seedlings as in (A) using antibodies as indicated. ChPD with GST alone was used as a negative control and histone H3 as reference.
Chromatin pull-down (ChPD) was performed using crude chromatin in ChIP dilution buffer (1.1% Triton X-100, 1.2 mM EDTA, 16.7 mM Tris-HCL pH 8, 167 mM NaCl) prepared as for ChIP (Gendrel et al., 2005) incubated with 8 μg GST-CW fusion protein and control proteins (only GST alone, or together with GST-CW-W874A and GST-WIYLD) over night. For western blotting, the pulled down chromatin was washed three times in ChIP dilution buffer, run on a 15% SDS-PAGE and blotted onto a PVDF membrane. […]

WIYLD domain of SUVR4: WIYLD domain of the Arabidopsis SET-domain protein SUVR4, GST fusion, negative control [reference compound]
pull down of H3K4 methylated chromatin (western blot signal): did not pull down
